The text below walks through data of article PMC5855801, “Benzothiophenone Derivatives Targeting Mutant Forms of Estrogen Receptor-α in Hormone-Resistant Breast Cancers” (International Journal of Molecular Sciences, 2018).

Like-named read-outs stand apart in the source and are kept apart here.

In assay [1] the target is T1, ERα (Homo sapiens, UniProt P03372).
T1 construct: endogenous in cells; host or cells: T47DKBluc (ATCC CRL-2865)
T1 sequence (P03372 1-595): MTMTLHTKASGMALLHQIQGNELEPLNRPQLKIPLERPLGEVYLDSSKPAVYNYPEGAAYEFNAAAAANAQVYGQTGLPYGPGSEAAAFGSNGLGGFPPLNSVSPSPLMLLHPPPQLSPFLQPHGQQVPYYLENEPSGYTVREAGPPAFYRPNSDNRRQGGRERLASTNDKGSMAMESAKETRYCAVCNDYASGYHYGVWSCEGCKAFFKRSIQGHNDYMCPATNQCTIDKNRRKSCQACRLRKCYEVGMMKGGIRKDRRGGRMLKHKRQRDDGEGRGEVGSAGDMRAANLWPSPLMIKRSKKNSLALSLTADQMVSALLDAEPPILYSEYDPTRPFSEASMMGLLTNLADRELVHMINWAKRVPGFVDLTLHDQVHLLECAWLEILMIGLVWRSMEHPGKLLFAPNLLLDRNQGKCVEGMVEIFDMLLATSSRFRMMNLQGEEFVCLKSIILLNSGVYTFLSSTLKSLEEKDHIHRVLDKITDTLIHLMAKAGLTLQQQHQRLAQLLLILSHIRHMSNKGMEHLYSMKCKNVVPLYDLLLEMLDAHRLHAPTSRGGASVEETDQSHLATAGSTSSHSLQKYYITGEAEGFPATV
Nature of the assay: Estrogen-responsive luciferase reporter transcriptional assay in T47DKBluc cells. In kind it is cell-based. The settings on record: 1 nM E2, 24 h; for IC50: read-out: IC50 against ERα in the luciferase reporter-based transcriptional assay. The protocol: T47DKBluc cells (ATCC® CRL-2865^TM, Manassa, VA, USA) stably transfected with a 3X-ERE–promoter–luciferase reporter gene construct, pGL2.TATA.Inr.luc.neo [38], were used to measure inhibition of ERα-driven transcriptional activity of the luciferase reporter.
This assay was performed as described previously. Briefly, ERα-positive T47DKBluc cells were grown in phenol red-free RPMI 1640 supplemented with 10% CSS for 5 days. The cells were seeded on 96-well plates (2 × 10^4 cells/well). After 24 h, the cells were treated with test compounds in the presence of 1 nM E2. Twenty four hours post-treatment, the cells were lysed with 50 μL of 1× passive lysis buffer (Promega, Madison, WI, USA). Twenty microliters of the lysate from each treatment were transferred onto a white, 96-well, flat-bottomed plate (Corning Life Sciences, Corelle, NY, USA), and the luminescent signal was measured after adding 50 μL of the luciferase assay reagent (Promega, Madison, WI, USA) on a Tecan M200Pro microplate reader (Tecan, Menedorf, Switzerland). Differences in growth were normalised against total protein concentration, which was measured by the bicinchoninic acid (BCA) assay.

In assay [2] the target is T1, ERα. Further details: method as in PMID 25848700. Particulars: estrogen-sensitive T47DKBluc cells; previously reported; read-out: IC50 of previously-reported template compound; cited from earlier work.
Another assay concerns the target T2, ERα LBD (Homo sapiens, UniProt P03372).
T2 construct: ERα LBD (amino acids 302–552) was cloned into the pAN4 AviTag™ Vector; made in house
T2 sequence (P03372 302-552): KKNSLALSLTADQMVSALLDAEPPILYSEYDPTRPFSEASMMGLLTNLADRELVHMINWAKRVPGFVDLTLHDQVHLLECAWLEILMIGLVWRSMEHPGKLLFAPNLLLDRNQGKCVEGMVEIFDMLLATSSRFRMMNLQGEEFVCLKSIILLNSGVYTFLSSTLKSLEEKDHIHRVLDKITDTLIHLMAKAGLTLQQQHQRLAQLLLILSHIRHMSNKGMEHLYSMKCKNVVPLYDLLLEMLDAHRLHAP
As to the kind of experiment: Biolayer interferometry (BLI) direct binding assay. The settings on record: biotinylated ERα LBD on streptavidin sensor, 3–100 μM. As for the experimental part: The direct binding of small molecules to the ERα-LBD was quantified by BLI using an Octet RED apparatus (Pall ForteBio, Menlo Park, CA, USA). ERα LBD (amino acids 302–552) was cloned into the pAN4 AviTag™ Vector, (Avidity, Aurora, CO, USA). Biotinylated ERα-LBD was purified as described previously. Biotinylated protein (bERα LBD at 0.05 mg/mL) was bound to the super streptavidin sensors (Pall ForteBio) overnight at 4 °C in assay buffer (20 mM Tris, pH 7.5, 500 mM NaCl, 0.2 mM tris(2-carboxyethyl)phosphine TCEP, 0.02 mM E2, 5% glycerol and 5% dimethyl sulfoxide (DMSO). The compounds were dissolved in the assay buffer in a two-fold dilution series ranging from 3.1–100 μM. In all experiments, a known AF2-interacting peptide, PGC-1α (Elim Biopharmaceuticals, Hayward, CA, USA) was used as a control to confirm the functionality of the bERα LBD.

In assay [3] the target is T3, ERα-LBD and FL-PGC1α peptide (Homo sapiens, UniProt P03372).
T3 construct: it was incubated with GST-tagged ERα-LBD (final concentration, 7.25 nM); purchased Life Technologies PV4544
T3 sequence (P03372 311-547 limits assumed): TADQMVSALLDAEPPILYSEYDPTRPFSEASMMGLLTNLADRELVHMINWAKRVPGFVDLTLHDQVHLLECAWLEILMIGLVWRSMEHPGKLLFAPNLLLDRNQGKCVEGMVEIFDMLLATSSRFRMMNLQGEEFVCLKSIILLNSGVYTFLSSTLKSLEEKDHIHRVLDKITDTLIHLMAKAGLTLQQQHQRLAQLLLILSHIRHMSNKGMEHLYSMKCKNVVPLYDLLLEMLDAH
As to the kind of experiment: LanthaScreen TR-FRET ER Alpha coactivator displacement assay. The settings on record: three-fold dilution range, dose-dependent. In kind it is biochemical. The protocol: The LanthaScreen TR-FRET ER Alpha Coactivator Assay kit (PV4544; Life Technologies) was used as per the manufacturer’s instructions and described previously. To assess the binding of VPC-16464 to the AF2 site, it was incubated with GST-tagged ERα-LBD (final concentration, 7.25 nM) in the presence of a fluorescently-labelled co-activator peptide (fluorescein-PGC-1α) at a final concentration of 250 nM, terbium (Tb)-labelled anti-GST antibody (final concentration, 5 nM) and E2 (final concentration, EC80 […]). Cold SRC-2–3 and PGC-1α peptides were used as positive controls for AF2 site-specific binding. TR-FRET was analysed on a Synergy 4 hybrid microplate reader (BioTek, Winooski, VT, USA) with the settings at 340-nm excitation and 495- and 520-nm emission. The emission ratio (520:495) was analysed and plotted.

Turning to `CC(=O)N(/N=C1\Sc2ccccc2C1=O)c1ccc(C)c(C)c1` [compound 16484], the IC50 on ERα [1] is 9.83 µM.
Same read-out and setting: the figure for `CC(=O)N(/N=C1\Sc2ccccc2C1=O)c1ccc(C)cc1` [compound 16475] is 12.3 µM.
Take `CCOc1cc(Br)cc(/C=N/NC(=O)c2ccc3c(c2)OCCO3)c1O` [VPC-16230]: the 50% inhibitory concentration (IC50) at ERα [2] is 5.8 µM.
Take `CC(=O)N(/N=C1\Sc2ccccc2C1=O)c1ccccc1F` [compound 16487]: the 50% inhibitory concentration (IC50) at ERα [1] was 4.64 µM.
Same read-out and setting: the figure for `CC(=O)N(/N=C1\Sc2c(F)cccc2C1=O)c1ccccc1Cl` [VPC-16607] is 2.9 µM.
With `CC(=O)N(/N=C1\Cc2ccccc2C1=O)c1ccccc1Cl` [VPC-16600], at ERα [1], the “IC50 against ERα in the luciferase reporter-based transcriptional assay” value is “Inactive”. In addition, on ERα LBD, the “Direct binding to ERα LBD (BLI)” value was “abolished”.
In the case of `CC(=O)N(/N=C1\Sc2ccccc2C1=O)c1ccccc1Cl` [VPC-16464], the half-maximal inhibitory concentration (IC50) at ERα [1] was determined as 2.7 µM. The “Direct binding to ERα LBD (BLI)” value at ERα LBD is given as “direct, reversible binding”. In addition, the “Displacement of FL-PGC1α peptide from ERα-LBD AF2 site (TR-FRET)” value in assay [3] is recorded as “successfully displaced”.
As for `CC(=O)N(/N=C1\Oc2ccccc2C1=O)c1ccccc1Cl` [VPC-16602], the “IC50 against ERα in the luciferase reporter-based transcriptional assay” value against ERα [1] was “Inactive”. For the same compound, on ERα LBD, the “Direct binding to ERα LBD (BLI)” value is “abolished”.
Take `CC(=O)N(/N=C1\Sc2ccccc2C1=O)c1cccc(C)c1` [compound 16457]: the IC50 at ERα [1] was found to be 3.78 µM.
